For orientation: LC50 means the concentration that kills 50% of the test population.

Bounds are passed on as bounds.

The text below walks through data of patent US11591309B2, “Manufacturing method for and insecticidal compositions comprising thiocyclam hydrochloride” (Arysta L[…] America, LLC, priority 2016, dated 2023).

Common to all, as to type: in vivo
For data set [1], the system named is Soybean looper, Chrysodeixis includens—3rd larval stage. Nature of the data set: Soybean looper 3rd larval stage bioassay by diet surface incorporation, mortality. The text has this:
Soybean looper, Chrysodeixis includens—3rd larval stage • Bioassay by diet surface incorporation • Mortality assessment 3 days after treatment • a.i. refers to active ingredient
(§1) LC stands for “Lethal Concentration”. LC values refer to the concentration of a chemical required to kill a certain proportion of a population of pests. The concentration of the chemical that kills 50 percent of the pests during the observation period is the LC50 value and a concentration that kills 90 percent of a population is LC90.

The test system of data set [2] is White flies, Trialeurodes vaporarium—larvae. The experiment in a line: White fly larvae on bean, boom sprayer application (IRAC no 015 adapted), mortality. To be noted: for LD50 / LD90: boom sprayer. The text has this: White flies, Trialeurodes vaporarium—larvae • Study based on IRAC no 015 methods, stage and application method adapted • Plant: bean • Application: On the petri dish with larvae with a boom sprayer apparatus • Assessment of mortality at 7, 9 and 14 days after application • a.i. refers to active ingredient
(§2) LD stands for “Lethal Dose”. LD50 is the amount of an ingested substance that kills 50 percent of a test sample and […] is the lethal dose that kills 90 percent of the test sample.

In data set [3] the test system is Codling moth, Cydiapomonella—neonate larvae. The experiment in a line: Codling moth neonate larvae bioassay by diet incorporation, mortality. To be noted: for LC50: Cydia pomonella, 48 h; for LC50 / LC90: mortality 2 days after treatment (D + 2), diet incorporation.
Text: Codling moth, Cydiapomonella—neonate larvae • Bioassay by diet incorporation • Mortality assessment 2 days after treatment • a.i. refers to active ingredient
as §1

Data set [4] has as its system Aphids Myzus persicae—larvae. The experiment in a line: Aphid larvae on radish, boom sprayer application (IRAC no 019 adapted), mortality.
Text: Aphids Myzus persicae—larvae • Study based on IRAC no 019 methods, application method adapted • Plant: radish • Application on petri dish with larvae with a boom sprayer apparatus • Assessment of mortality 3 and 4 days after application • a.i. refers to active ingredient
as §2

Setting [5] is: mortality 3 days after treatment (D + 3), diet surface incorporation.

`CN(C)C1CSSSC1.Cl` [Thiocyclam HCl, N,N-dimethyl-1,2,3-trithian-5-ylamine hydrochloride]: the 50% lethal concentration (LC50) came out at 8990 µg/mL in data set [1] (72 h, mortality 3 days after treatment (D + 3), diet surface incorporation) and 2.57 µg/mL in data set [3]. Further, the “LC90 compared to cartap” value in data set [1] (example 2, comparison in words) is on record as “more than three times lower”. In addition, in data set [1] (example 2, comparison in words), the “LC90 compared to thiocyclam oxalate” value was “orders of magnitude smaller”. In data set [1] (example 2, ratio versus cartap), the “times less at LC50 than cartap” value is recorded as “approximately 6 times”. The “times less at LC50 than thiocyclam oxalate” value in data set [1] (example 2, ratio versus thiocyclam oxalate) was “approximately 20 times”. Also, the LC90 is given as 251,759 μg of a.i./ml of diet in data set [1] (setting [5]) and 10.80 μg of a.i./ml of diet in data set [3]. Further, the LD50 stood at 2.22 g a.i./ha in data set [2] (D +7, bean); 2.23 g a.i./ha in data set [2] (D +9, bean); 0.82 g a.i./ha in data set [2] (D +14, bean); 12.04 g a.i./ha in data set [4] (D +3, radish); 7.66 g a.i./ha in data set [4] (D +4, radish). The LD90 is listed as 1,899 g a.i./ha in data set [2] (D +7, bean); 4,905 g a.i./ha in data set [2] (D +9, bean); 7,910 g a.i./ha in data set [2] (D +14, bean); 30.51 g a.i./ha in data set [4] (D +3, radish); 27.07 g a.i./ha in data set [4] (D +4, radish). The “LD90 compared to cartap” value in data set [2] (example 4, days 7 and 9) is “lower application concentration compared to cartap”. In addition, the “LC50 and LC90 compared to thiocyclam oxalate” value in data set [3] (example 1, comparison in words) is “significantly lower concentrations than thiocyclam oxalate”. For the same molecule, in data set [3] (example 1, ratio versus cartap), the “times less at LC50 compared to cartap” value is “approximately 4 times”. Besides, the “times less at LC90 compared to cartap” value in data set [3] (example 1, ratio versus cartap) is reported as “approximately 9 times”.
Consider `CN(C)C(CSC(N)=O)CSC(N)=O` [Cartap, S, S-[2-(dimethylamino)-1,3-propanediyl] dicarbamothioate, reference compound], for which the figures for the LC90 in data set [1] (setting [5]) and in data set [3] were 908,897 μg of a.i./ml of diet and 104.80 μg of a.i./ml of diet, respectively. Moreover, the LD50 in data set [2] (D +7, bean) was 213.7 g a.i./ha; in data set [2] (D +9, bean) it was 15.6 g a.i./ha; in data set [2] (D +14, bean) it was 10.4 g a.i./ha; in data set [4] (D +3, radish) it was under 18.18 g a.i./ha; in data set [4] (D +4, radish) it was under 18.18 g a.i./ha. The LD90 is 2.3 × 10^6 g a.i./ha in data set [2] (D +7, bean); 4,566.3 g a.i./ha in data set [2] (D +9, bean); 910.4 g a.i./ha in data set [2] (D +14, bean); 36.70 g a.i./ha in data set [4] (D +3, radish); 16 g a.i./ha in data set [4] (D +4, radish). Also, the LC50 in data set [3] came out at 10.1 µg/mL.
